Experiments:
Albumin = Albumin (Homo sapiens, UniProt P02768); assay: Binding affinity to human serum albumin; type: ADME; conditions: isolated protein
Hepatitis C virus [1] = assay: Inhibition of HCV 1b NS5B polymerase expressed in Sf9 cells; set-up: species or system Hepatitis C virus subtype 1b
Hepatitis C virus [2] = assay: Antiviral activity against HCV 1b infected in human hepatoma cells by replicon assay; type: functional, organism-based, Hepacivirus hominis; conditions: genotype 1b

Chain of Albumin (P02768 whole entry): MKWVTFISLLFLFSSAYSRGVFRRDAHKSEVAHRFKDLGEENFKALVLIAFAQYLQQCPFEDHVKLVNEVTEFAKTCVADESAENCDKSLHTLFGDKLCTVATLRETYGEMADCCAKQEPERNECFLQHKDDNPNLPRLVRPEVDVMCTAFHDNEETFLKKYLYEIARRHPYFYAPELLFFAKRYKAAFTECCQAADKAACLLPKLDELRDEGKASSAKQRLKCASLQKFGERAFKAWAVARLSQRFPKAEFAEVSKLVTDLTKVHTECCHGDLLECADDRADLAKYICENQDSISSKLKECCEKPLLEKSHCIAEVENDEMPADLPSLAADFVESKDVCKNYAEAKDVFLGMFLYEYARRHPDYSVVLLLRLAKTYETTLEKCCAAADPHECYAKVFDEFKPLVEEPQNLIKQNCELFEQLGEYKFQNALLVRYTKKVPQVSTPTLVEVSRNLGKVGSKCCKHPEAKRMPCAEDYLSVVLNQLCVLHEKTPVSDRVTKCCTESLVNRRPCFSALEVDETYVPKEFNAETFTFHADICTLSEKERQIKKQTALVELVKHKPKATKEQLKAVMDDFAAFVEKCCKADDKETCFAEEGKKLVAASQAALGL

Activity (Albumin)	IC50 (Hepatitis C virus [1])	IC50 (Hepatitis C virus [2])	Compound
97%	3340 nM	–	CC(C)CCn1c(=O)c(C2=NS(=O)(=O)c3ccccc3N2)c(O)c2cnn(C)c21
97.8%	< 5 nM	51 nM	NC(=O)COc1ccc2c(c1)S(=O)(=O)N=C(c1c(O)c3cccnc3n(CCC3CC3)c1=O)N2
98.8%	12 nM	542 nM	O=c1c(C2=NS(=O)(=O)c3cc(O)ccc3N2)c(O)c2cccnc2n1CCC1CC1
–	132 nM	4320 nM	CC(C)CCn1c(=O)c(C2=NS(=O)(=O)C3=C(CCN(CCC#N)C3)N2)c(O)c2ccccc21
99.1%	25 nM	471 nM	CC(C)CCn1c(=O)c(C2=NS(=O)(=O)c3cc(O)ccc3N2)c(O)c2ccsc21
98.7%	31 nM	743 nM	CC(C)CCn1c(=O)c(C2=NS(=O)(=O)c3ncccc3N2)c(O)c2ccccc21
97.7%	18 nM	2380 nM	CC(C)CCn1c(=O)c(C2=NS(=O)(=O)c3c[n+]([O-])ccc3N2)c(O)c2ccccc21
99.4%	975 nM	–	CC(C)CCn1c(=O)c(C2=NS(=O)(=O)C3=C(CCN(C(=O)Nc4ccccc4)C3)N2)c(O)c2ccccc21
98%	1530 nM	–	CC(=O)N1CCC2=C(C1)S(=O)(=O)N=C(c1c(O)c3ccccc3n(CCC(C)C)c1=O)N2
> 99.9%	212 nM	1360 nM	CC(C)CCn1c(=O)c(C2=NS(=O)(=O)c3ccccc3N2)c(O)c2cccnc21
> 99.9%	–	417 nM	CC(C)CCn1c(=O)c(C2=NS(=O)(=O)c3ccccc3N2)c(O)c2ccccc21
98.2%	604 nM	12200 nM	CC(C)CCn1c(=O)c(C2=NS(=O)(=O)C3=C(CCNC3)N2)c(O)c2ccccc21
–	> 30000 nM	–	CSc1ncc2c(O)c(C3=NS(=O)(=O)c4ccccc4N3)c(=O)n(CCC(C)C)c2n1
97.6%	4940 nM	–	CC(C)CCn1c(=O)c(C2=NS(=O)(=O)c3ccccc3N2)c(O)c2cn[nH]c21
98.7%	289 nM	> 30000 nM	CC(C)CCn1c(=O)c(C2=NS(=O)(=O)C3=C(CCN(CCc4nnn[nH]4)C3)N2)c(O)c2ccccc21
–	276 nM	> 20000 nM	CC(C)CCn1c(=O)c(C2=NS(=O)(=O)C3=C(CCN(CC(=O)O)C3)N2)c(O)c2ccccc21
–	57 nM	> 20000 nM	CC(C)CCn1c(=O)c(C2=NS(=O)(=O)c3cc(Cl)sc3N2)c(O)c2ccccc21
98.5%	200 nM	> 20000 nM	Cc1nn(C)c2c1S(=O)(=O)N=C(c1c(O)c3ccccc3n(CCC(C)C)c1=O)N2
99.5%	20 nM	2890 nM	CC(C)CCn1c(=O)c(C2=NS(=O)(=O)c3ccsc3N2)c(O)c2ccccc21
98.4%	< 5 nM	52 nM	CC(C)CCn1c(=O)c(C2=Nc3ccc(OCC(N)=O)cc3S(=O)(=O)N2)c(O)c2cccnc21
98.3%	< 5 nM	47 nM	CC(C)CCn1c(=O)c(C2=NS(=O)(=O)c3cc(O[C@H](C)C(N)=O)ccc3N2)c(O)c2cccnc21

Activity (Albumin)	IC50 (Hepatitis C virus [1])	IC50 (Hepatitis C virus [2])	Compound
98.2%	774 nM	–	CNC(=O)N1CCC2=C(C1)S(=O)(=O)N=C(c1c(O)c3ccccc3n(CCC(C)C)c1=O)N2
97.9%	679 nM	40000 nM	CCN1CCC2=C(C1)S(=O)(=O)N=C(c1c(O)c3ccccc3n(CCC(C)C)c1=O)N2
98%	288 nM	> 20000 nM	CC(C)CCn1c(=O)c(C2=NS(=O)(=O)C3=C(CCN(CCC(N)=O)C3)N2)c(O)c2ccccc21
–	51 nM	1680 nM	CC(C)CCn1c(=O)c(C2=NS(=O)(=O)c3cccnc3N2)c(O)c2ccccc21
99%	16 nM	1190 nM	CC(C)CCn1c(=O)c(C2=NS(=O)(=O)c3cc(O)ccc3N2)c(O)c2sccc21
> 99.9%	1170 nM	–	CC(C)CCn1c(=O)c(C2=NS(=O)(=O)c3ccccc3N2)c(O)c2cc(Br)sc21
–	> 30000 nM	–	CC(C)CCn1c(=O)c(C2=NS(=O)(=O)c3ccccc3N2)c(O)c2cc(-c3ccccc3)sc21
98.3%	728 nM	–	CC(C)CCn1c(=O)c(C2=NS(=O)(=O)C3=C(CCN(CCCN)C3)N2)c(O)c2ccccc21
> 99.9%	> 48 nM	942 nM	CC(C)CCn1c(=O)c(C2=NS(=O)(=O)c3ccccc3N2)c(O)c2sccc21
–	3020 nM	–	CC(C)CCn1c(=O)c(C2=NS(=O)(=O)c3c(sc(Cl)c3Br)N2)c(O)c2ccccc21
98.3%	< 5 nM	114 nM	CC(C)CCn1c(=O)c(C2=NS(=O)(=O)c3cc(O[C@H](C)C(N)=O)ccc3N2)c(O)c2sccc21
97.8%	< 5 nM	–	C[C@@H](Oc1ccc2c(c1)S(=O)(=O)N=C(c1c(O)c3cccnc3n(CCC3CC3)c1=O)N2)C(N)=O
99%	16 nM	473 nM	CC(C)CCn1c(=O)c(C2=NS(=O)(=O)c3cc(O)ccc3N2)c(O)c2cccnc21
–	16 nM	13700 nM	CC(C)CCn1c(=O)c(C2=NS(=O)(=O)c3c(cc[nH]c3=O)N2)c(O)c2ccccc21
99%	20 nM	226 nM	CC(C)CCn1c(=O)c(C2=NS(=O)(=O)c3cnccc3N2)c(O)c2ccccc21
98.3%	< 5 nM	126 nM	CC(C)CCn1c(=O)c(C2=NS(=O)(=O)c3cc(OCC(N)=O)ccc3N2)c(O)c2sccc21
98.7%	< 5 nM	238 nM	CC(C)CCn1c(=O)c(C2=NS(=O)(=O)c3cc(OCC(N)=O)ccc3N2)c(O)c2ccsc21
97.6%	879 nM	–	COC(=O)CN1CCC2=C(C1)S(=O)(=O)N=C(c1c(O)c3ccccc3n(CCC(C)C)c1=O)N2
99.2%	6 nM	15 nM	CC(C)CCn1c(=O)c(C2=NS(=O)(=O)c3cc(OCC(N)=O)ccc3N2)c(O)c2ccccc21
> 99.9%	132 nM	1160 nM	CC(C)CCn1c(=O)c(C2=NS(=O)(=O)c3ccccc3N2)c(O)c2ccsc21

Source: ChEMBL document CHEMBL1152357, “Synthesis and biological activity of heteroaryl 3-(1,1-dioxo-2H-(1,2,4)-benzothiadizin-3-yl)-4-hydroxy-2(1H)-quinolinone derivatives as hepatitis C virus NS5B polymerase inhibitors” (Bioorg Med Chem Lett, 2009)
